Tests used:
rat sciatic nerve [1] = experiment: Human-to-rat acellular nerve xenograft model, GAP-43 axon scoring; type: in vivo; settings: 8-day acellular human nerve xenografts in rat
Description: Human nerve fascicles (of similar diameter to the rat sciatic nerve) were grafted into a gap made in the rat sciatic nerve. Serial sections of the 8-day interpositional nerve xenografts were scored for GAP-43-labeled axonal profiles by digital image analysis. Data represent the means (−SEM) of 2 vehicle-treated and 2 chondroitinase-treated grafts assessed at the specified distances into the graft (proximal to distal).
In the following experiments, the hypothesis that chondroitinase treatment improves nerve regeneration through acellular human nerve grafts in a rat xenograft model was tested. Subunits (individual fascicles) taken from human nerves were treated en bloc with vehicle or chondroitinase ABC. Ten-mm interpositional nerve grafts were joined to the rat host sciatic nerve by epineurial neurorrhaphy reinforced with fibrin glue. Each of 2 host rats received bilateral grafts, one vehicle-treated and one chondroitinase-treated graft. Regeneration was initially examined after 8 days. Axonal growth was assessed at specified spatial intervals within the graft by scoring GAP-43-immunopositive profiles in transverse sections.

rat sciatic nerve [2] = experiment: Bilateral sciatic nerve transection (neurotmesis) and neurorrhaphic repair, GAP-43 axon scoring; type: in vivo; settings: for axon regeneration / ingress into the distal segment vs vehicle-treated controls: 4 days after transection and repair
Procedure: (§1) Surgical procedures for nerve transection and nerve crush experiments. All surgical procedures were performed according to Institutional Animal Care and Use Committee (IACUC) approved protocols. Young adult SPRAGUE DAWLEY rats (HARLAN Indianapolis, Ind.) were deeply anesthetized with xylazine (15 mg/kg, i.m.) followed by ketamine-HCl (110 mg/kg, i.p.). Six animals received bilateral nerve crush injuries. Sciatic nerves were exposed and then crushed with firm pressure for thirty seconds with a DUMONT #5 forceps at a site 4 mm distal to the tendon of the internal obdurator. The crush site was marked with an epineurial suture. In a separate set of experiments, eight rats received bilateral sciatic nerve transection injuries using serrated scissors. The proximal and distal stumps were […] by epineurial neurorrhaphy using 9-0 ETHILON sutures. Fibrin glue (fibrinogen and thrombin) was then applied to stabilize the union. In both injury models, the right sciatic nerves were injected 2-mm distal to the injury with chondroitinase ABC (1 U in 2 μl) (high-purity, protease-free; SIGMA CHEMICAL CO., St. Louis, […].). Left sciatic nerves (with the same injury as the right side) were injected with vehicle alone (0.1% bovine serum albumin in PBS). Muscle incisions were sutured and the skin closed with metal clips. After recovery from the anesthetic, animals were returned to standard housing. Two days (for crush injury) and four days (for transection injury) after surgery, nerves were removed under anesthesia and fixed as described below. One of the eight animals receiving nerve transection and repair was excluded because loss of continuity in one nerve occurred during convalescence.
The hypothesis that chondroitinase treatment improves axonal growth through the site of nerve coaptation was tested. Bilateral neurotmesis was achieved by a scissor cut of the sciatic nerves which were then repaired by epineurial suture and fibrin glue. One nerve was injected with chondroitinase ABC and the contralateral nerve received vehicle alone. Because of the latency of regeneration after nerve transection, axonal growth across the coaptation was examined four days after injury. In control nerves, the ingress of axons occurred mainly in patches and was limited to discrete subsections of the distal nerve; otherwise only a few axons were found scattered throughout the remaining nerve cross-section, as shown in FIG. 14A. The number of axons extending farther into the distal (after 4 days) rapidly diminished and approached zero within 3 mm from the coaptation. In contrast, axon ingress into chondroitinase-treated nerves was more robust and widespread throughout the entire nerve cross-section. In 7/7 animals, the number of axons that entered the distal nerve was greater in the chondroitinase-treated nerve than in the control nerve. […] It was clear that axon growth in all portions of the distal nerve was strictly linear and aligned with the longitudinal axis of the nerve.

chick DRG neurons = experiment: Cryoculture assay using human nerve segments; type: cell-based; settings: DRG neurons 24 h on treated human nerve sections
Procedure: Human nerves were treated with chondroitinase and then assayed for neurite-promoting activity. Dissociated chick DRG neurons were grown on the sections for 24 h and neurite lengths were scored. Results are expressed as means (−SEM). Statistical significance (P<0.001) comparing vehicle-treated and chondroitinase-treated conditions was found using Student's t test.
Cryoculture bioassay. Cryoculture is a neurite outgrowth assay in which neurons are cultured directly on fresh/frozen nerve sections and was performed as described previously (Ferguson T A et al. [2000] Mol Cell Neurosci, 16:157-167). Briefly, chondroitinase- and vehicle-treated nerve segments were sectioned at 20 μm, mounted on sterile, aminopropyltriethoxysilane (APTS)-coated coverslips and stored at −20° C. until used. Where indicated, sections were treated with chondroitinase ABC (0.1 unit/ml) or vehicle (50 mM Tris-HCl, pH 8.0), containing 50 mM NaCl) for 2 h at 37° C. […] Neurite lengths were measured directly using IMAGE-PRO PLUS software (MEDIA CYBERNETICS, Silver Springs, Md.). At least 250 neurons with neurites greater than one cell body (˜15 μm) were scored for each condition in each experiment. […]

rat sciatic nerve [3] = experiment: Bilateral sciatic nerve crush injury (axonotmesis), GAP-43 axon scoring; type: in vivo; settings: 2 days after injury; for axonal regeneration after nerve crush injury (GAP-43 immunoreactivity) vs vehicle: 1 U injected
Procedure: as §1
The hypothesis that chondroitinase treatment improves axonal growth through the site of nerve crush injury was tested. Bilateral axonotmesis was achieved by severely crushing the sciatic nerves while maintaining the continuity of the nerve sheaths. […] Regenerating axons were labeled by GAP-43 immunofluorescence and scored by digital image analysis. […]

[4] = tested on: embryonic chick DRG neurons; experiment: Cryoculture bioassay on sections of acellular rat nerve segments; type: cell-based
Procedure: Cryoculture bioassay. Cryoculture is a neurite outgrowth assay in which neurons are cultured directly on fresh/frozen nerve sections and was performed as described previously (Ferguson T A et al. [2000] Mol Cell Neurosci, 16:157-167). Briefly, chondroitinase- and vehicle-treated nerve segments were sectioned at 20 μm, mounted on sterile, aminopropyltriethoxysilane (APTS)-coated coverslips and stored at −20° C. until used. Where indicated, sections were treated with chondroitinase ABC (0.1 unit/ml) or vehicle (50 mM Tris-HCl, pH 8.0), containing 50 mM NaCl) for 2 h at 37° C. Purified dorsal root ganglionic (DRG) neurons from day 8 chick embryos were seeded directly on the nerve sections in a defined N2 medium (Bottenstein J E et al. [1980] Exp Cell Res 125:183-190) containing 10 ng/ml nerve growth factor. […] Neurite lengths were measured directly using IMAGE-PRO PLUS software (MEDIA CYBERNETICS, Silver Springs, Md.). At least 250 neurons with neurites greater than one cell body (˜15 μm) were scored for each condition in each experiment.
Inactivation of inhibitory CSPG in chondroitinase-treated acellular nerve was determined by cryoculture bioassay. Embryonic chick DRG neurons were seeded onto sections of prepared nerve segments and the neurite-promoting activity was assessed by scoring neurite growth. […]

Substance: chondroitinase ABC
- average number of axons (GAP-43-immunopositive profiles) entering grafts vs control grafts (rat sciatic nerve [1]): more than three-fold greater
- animals in which number of axons entering distal nerve was greater than in control nerve (rat sciatic nerve [2]; 4 days after injury): 7/7
- increase in axon score immediately distal to coaptation in 3/7 animals (rat sciatic nerve [2]; 4 days after injury, 3/7 animals): greater than 3.5 fold
- score of axons immediately distal to the coaptation vs control (rat sciatic nerve [2]; 4 days after injury, average): two-fold greater
- axon regeneration / ingress into the distal segment vs vehicle-treated controls (rat sciatic nerve [2]): significantly greater
- axon regeneration / ingress into the distal segment vs vehicle-treated controls (rat sciatic nerve [2]; listed as chondroitinase): increased several-fold
- growth-promoting properties of human nerves (neurite length) (chick DRG neurons): increased
- latency or rate of axonal regeneration after crush (rat sciatic nerve [3]): no indication that the latency or rate of axonal regeneration was altered
- axonal regeneration after nerve crush injury (GAP-43 immunoreactivity) vs vehicle (rat sciatic nerve [3]): no significant difference
- axonal regeneration after nerve crush injury (GAP-43 immunoreactivity) vs vehicle (rat sciatic nerve [3]; listed as chondroitinase): not significantly effected
- effect of post-treatment on neurite-promoting activity ([4]; sections from en bloc chondroitinase-treated nerve grafts): only a slight additive effect
- increase in neurite-promoting activity by post-treatment of sections ([4]; sections of acellular nerve treated en bloc with vehicle only, post-treated after sectioning): 86%

From patent US8986733B2, “Materials and methods for nerve repair” (University of Florida Research Foundation, Inc., priority 2001, dated 2015)
